Laboratory results reported in patent publication US20250082633A1, “COMPOUNDS AND METHODS FOR MODULATING SPLICING” (REMIX THERAPEUTICS INC., priority 2021, published 2025).
Where two headings read alike, the source gives them in different places.

Assays:
Format in all cases: cell-based
Target C = test: RT-qPCR splicing assay, gene panel, Target C canonical junction (CJ) mRNA; details: Homo sapiens; decrease in CJ mRNA levels; larger panel of genes; Table 3; read-out: Target C CJ IC50
Method: (§1) Compounds described herein were used to modulate RNA transcript abundance in cells. The expression of a target mRNA was measured by detecting the formation of an exon-exon junction in the canonical transcript (CJ). A compound mediated exon-inclusion event was detected by observing an increase in formation of a new junction with an alternative exon (AJ). Real-time qPCR assays were used to detect these splicing switches and interrogate the potency of various compounds towards different target genes. A high-throughput real time quantitative PCR (RT-qPCR) assay was developed to measure these two isoforms of the mRNA (CJ and AJ) for exemplary genes, such as HTT, SMN2, and MYB, together with a control housekeeping gene, GAPDH or GUSB or PPIA, used for normalization. Briefly, the A673 or K562 cell line was treated with various compounds described herein (e.g., compounds of Formula (I)). After treatment, the levels of the HTT, MYB, or SMN2 mRNA targets were determined from each sample of cell lysate by cDNA synthesis followed by qPCR.
(§2) The A673 cell line was cultured in DMEM with 10% FBS. Cells were diluted with full growth media and plated in a 96-well plate (15,000 cells in 100 ul media per well). The plate was incubated at 37° C. with 5% CO2 for 24 hours to allow cells to adhere. An 11-point 3-fold serial dilution of the compounds was made in DMSO then diluted in media in an intermediate plate. Compounds were transferred from the intermediate plate to the cell plate with the top dose at a final concentration of 10 uM in the well. Final DMSO concentration was kept at or below 0.25%. The cell plate was returned to the incubator at 37° C. with 5% CO2 for an additional 24 hours.
(§3) The K562 cell line was cultured in IMDM with 10% FBS. For K562, cells were diluted with full growth media and plated in either a 96-well plate (50,000 cells in 50 uL media per well) or a 384-well plate (8,000-40,000 cells in 45 uL media per well). An 11-point 3-fold serial dilution of the compounds were made in DMSO then diluted in media in an intermediate plate. Compound was transferred from the intermediate plate to the cell plate with the top dose at a final concentration of 10 uM in the well. Final DMSO concentration was kept at or below 0.25%. Final volume was 100 uL for 96-well plate and 50 uL for 384-well plate. The cell plate was then placed in an incubator at 37° C. with 5% CO2 for 24 hours.
(§4) The cells were then gently washed with 50 uL-100 uL cold PBS before proceeding to addition of lysis buffer. 30 uL-50 μL of room temperature lysis buffer with DNAse I (and optionally RNAsin) was added to each well. Cells were shaken/mixed thoroughly at room temperature for 5-10 minutes for lysis to take place and then 3 uL-5 μL of room temperature stop solution was added and wells were shaken/mixed again. After 2-5 minutes, the cell lysate plate was transferred to ice for RT-qPCR reaction setup. The lysates could also be frozen at −80° C. for later use.
(§5) In some cases, a direct lysis buffer was used. An appropriate volume of 3× lysis buffer (10 mM Tris, 150 mM NaCl, 1.5%-2.5% Igepal and 0.1-1 U/uL RNAsin, pH 7.4) was directly added to either K562 or A673 cells in media and mixed by pipetting 3 times. The plates were then incubated at room temperature with shaking/rocking for 20-50 minutes to allow for lysis to take place. After this time, the cell lysate plate was transferred to ice to set up for the RT-qPCR reactions. The lysates could also be frozen at −80° C. for later use.
(§6) To set up 10 uL RT-qPCR reactions, cell lysates were transferred to 384-well qPCR plates containing the master mix according to the table below. The plates were sealed, gently vortexed, and spun down before the run. The volumes were adjusted accordingly in some instances where the reaction was carried in 20 μL. The table below summarizes the components of the RT-qPCR reactions:
(§7) The RT-qPCR reaction was performed using a QuantStudio (ThermoFisher) under the following fast cycling conditions. […]

MYB mRNA = test: RT-qPCR splicing assay, MYB canonical (CJ) and alternative (AJ) junction mRNA; details: Homo sapiens; for IC50: read-out: MYB CJ IC50; for AC50: increase in alternative junction mRNA, read-out: MYB AJ AC50
Method: as §1
(§8) • Cells-to-CT 1-step kit: ThermoFisher A25602, Cells-to-CT lysis reagent: ThermoFisher 4391851C, TaqMan™ Fast Virus 1-Step Master Mix: ThermoFisher 4444436 • GAPDH: VIC-PL, ThermoFisher 4326317E (Assay: Hs99999905_m1)—used for K562/suspension cell lines • GUSB: VIC-PL, ThermoFisher 4326320E (Assay: Hs99999908_m1)—used for K562/suspension cell lines • PPIA: VIC-PL, ThermoFisher 4326316E (Assay: Hs99999904_m1)—used for A673/adherent cell lines
as §2, §3, §4
(§9) In some cases, a direct lysis buffer was used. An appropriate volume of 3× lysis buffer (10 mM Tris, 150 mM NaCl, 1.5%-2.5% Igepal and 0.1-1 U/uL RNAsin, pH 7.4) was directly added to either K562 or A673 cells in media and mixed by pipetting 3 times. The plates were then incubated at room temperature with shaking/rocking for 20-50 minutes to allow for lysis to take place. After this time, the cell lysate plate was transferred to ice to set up for the RT-qPCR reactions. The lysates could also be frozen at −80° C. for later use. […]

HTT mRNA = test: RT-qPCR splicing assay, HTT canonical (CJ) and alternative (AJ) junction mRNA; details: Homo sapiens; for IC50: read-out: HTT CJ IC50; for AC50: increase in alternative junction mRNA, read-out: HTT AJ AC50
Method: as §1, §8, §2, §3, §4, §9

SMN2 mRNA = test: RT-qPCR splicing assay, gene panel, SMN2 canonical junction (CJ) mRNA; details: Homo sapiens; decrease in CJ mRNA levels; larger panel of genes; Table 3; read-out: SMN2 CJ IC50
Method: as §1, §2, §3, §4, §5, §6, §7

K562 cells = test: Cell Titer Glo 2.0 cell viability assay; details: Homo sapiens, 500 cells/well, 72 hours
Method: Compounds described herein were screened for toxicity in K562 (human chronic myelogenous leukemia) and SH-SY5Y (human neuroblastoma) cells using a Cell Titer Glo 2.0 assay. • Promega CellTiter-Glo® 2.0 Cell Viability Assay (cat #G9241) • Corning 384-well TC-treated microplates (cat #3570) Cells were plated at 500 cells/well (K562 cells) in 45 μL of IMDM supplemented with 10% FBS in a 384-well opaque plate. Wells containing only medium were used as a blank control. Test compounds (e.g., compounds of Formula (I), (II), or (III)) were first serially diluted in DMSO then diluted 1:100 with IMDM+10% FBS. The final concentration of DMSO was 0.1% in each well. The cells were incubated for 72 hours at 37° C. and 5% CO2 before assaying with Cell Titer Glo 2.0 reagent.

[1] = decrease in CJ mRNA levels, larger panel of genes, Table 3
[2] = decrease in canonical junction mRNA, A673 or K562 cells, 24 hours treatment, Table 2
[3] = A673 or K562 cells, 24 hours treatment, Table 2

Row | SMILES | IC50 (Target C) [nM] | IC50 (MYB mRNA; [1]) [nM] | IC50 (MYB mRNA; [2]) [nM] | IC50 (HTT mRNA; [1]) [nM] | IC50 (HTT mRNA; [2]) [nM] | IC50 (SMN2 mRNA) [nM] | GI50 (K562 cells) [nM] | AC50 (MYB mRNA; [3]) [nM] | AC50 (HTT mRNA; [3]) [nM]
1 | Cc1cn2nc(-c3cc(F)c4nn([C@H]5CCN(C)C[C@@H]5F)cc4c3)cc(C)c2n1 [Compound 196, 6-[7-fluoro-2-[(3S,4S)-3-fluoro-1-methyl-4-piperidyl]indazol-5-yl]-2,8-dimethyl-imidazo[1,2-b]pyridazine] | > 10000 | > 10000 | > 10000 | 1000 to 10000 | 1000 to 10000 | 100 to 1000 | > 10000 | 1000 to 10000 | 1000 to 10000
2 | Cc1cn2nc(-c3cc(F)c4nn(C5CCNC6(CC6)C5)cc4c3)cc2c(C)n1 (stereo in doubt) [Compound 205, 2-[2-[(7S)-4-azaspiro[2.5]octan-7-yl]-7-fluoro-indazol-5-yl]-4,6-dimethyl-pyrazolo[1,5-a]pyrazine] | 1000 to 10000 | 1000 to 10000 | 1000 to 10000 | 100 to 1000 | 100 to 1000 | 100 to 1000 | 1000 to 10000 | 100 to 1000 | 100 to 1000
3 | Cc1cn2nc(-c3cc(F)c4nn(C5CCNC6(CC6)C5)cc4c3)cc2c(C)n1 (stereo not drawn) [Compound 204, 2-[2-(4-azaspiro[2.5]octan-7-yl)-7-fluoro-indazol-5-yl]-4,6-dimethyl-pyrazolo[1,5-a]pyrazine] | 100 to 1000 | 1000 to 10000 | 1000 to 10000 | 100 to 1000 | 100 to 1000 | 100 to 1000 | 1000 to 10000 | 1000 to 10000 | 100 to 1000
4 | Cc1cn2nc(-c3cc(C)c4nn(C5CCNC6(CC6)C5)cc4n3)cc(C)c2n1 (stereo not drawn) [Compound 208, 2-(4-azaspiro[2.5]octan-7-yl)-5-(2,8-dimethylimidazo[1,2-b]pyridazin-6-yl)-7-methyl-pyrazolo[4,3-b]pyridine] | > 10000 | > 10000 | > 10000 | > 10000 | > 10000 | 1000 to 10000 |  | > 10000 | > 10000
5 | Cc1cn2nc(-c3cc(F)c4nn([C@H]5CCN(C)C6(CC6)C5)cc4c3)cc(C)c2n1 [Compound 175, 6-[7-fluoro-2-[(7S)-4-methyl-4-azaspiro[2.5]octan-7-yl]indazol-5-yl]-2,8-dimethyl-imidazo[1,2-b]pyridazine] | < 100 | 100 to 1000 | 100 to 1000 | < 100 | < 100 |  | 100 to 1000 | < 100 | < 100

Continued, in another order:

Row | IC50 (Target C) [nM] | IC50 (MYB mRNA; [1]) [nM] | IC50 (MYB mRNA; [2]) [nM] | IC50 (HTT mRNA; [1]) [nM] | IC50 (HTT mRNA; [2]) [nM] | IC50 (SMN2 mRNA) [nM] | GI50 (K562 cells) [nM] | SMILES | AC50 (MYB mRNA; [3]) [nM] | AC50 (HTT mRNA; [3]) [nM]
6 | 1000 to 10000 | 100 to 1000 | 100 to 1000 | 100 to 1000 | 100 to 1000 | < 100 |  | Cc1cn2nc(-c3cc(F)c4nn(C5CCN(C(C)(C)C)CC5)cc4c3)cc(C)c2n1 [Compound 207, 2-(1-tert-butylpiperidin-4-yl)-5-{2,8-dimethylimidazo[1,2-b]pyridazin-6-yl}-7-fluoroindazole] | 100 to 1000 | 100 to 1000
7 | < 100 | 100 to 1000 | 100 to 1000 | < 100 | < 100 | < 100 | 100 to 1000 | CCN1CCC(n2cc3cc(-c4cc(C)c5nc(C)cn5n4)cc(F)c3n2)CC12CCC2 (stereo not drawn) [Compound 198, 6-[2-(5-ethyl-5-azaspiro[3.5]nonan-8-yl)-7-fluoro-indazol-5-yl]-2,8-dimethyl-imidazo[1,2-b]pyridazine] | 100 to 1000 | < 100
8 | 100 to 1000 | 100 to 1000 | 100 to 1000 | < 100 | < 100 |  | 100 to 1000 | Cc1cn2nc(-c3cc(F)c4nn([C@@H]5CCN(C)C6(CC6)C5)cc4c3)cc(C)c2n1 [Compound 176, 6-[7-fluoro-2-[(7R)-4-methyl-4-azaspiro[2.5]octan-7-yl]indazol-5-yl]-2,8-dimethyl-imidazo[1,2-b]pyridazine] | 1000 to 10000 | < 100
9 |  | 100 to 1000 | 100 to 1000 | < 100 | < 100 | < 100 |  | Cc1cn2nc(-c3nc4cn(C5CCNCC5)nc4c(=O)[nH]3)cc(C)c2n1 [Compound 211, 5-(2,8-dimethylimidazo[1,2-b]pyridazin-6-yl)-2-(4-piperidyl)-6H-pyrazolo[4,3-d]pyrimidin-7-one] | 100 to 1000 | 100 to 1000
